“Also recorded” adds a separate entry of the source.
Assays:
[1] = system: lipid droplets in wild type MEF cells; test: Reduction of OA-induced lipid droplets in wild type MEF cells (BODIPY 493/503 staining); assay type: cell-based, mouse; conditions: wild type MEF, 24 h; for lipid droplets: 1.5 μM or 5 μM; for amount of lipid droplets / size of lipid droplets: OA-induced
Protocol: (5) OA-BSA stock solution was prepared into OA-BSA working solution (50× final concentration, 200 μM), and 40 μl of OA-BSA working solution was added to each well to induce lipid droplets. For the non-OA induction group, 40 μl of 10% BSA solution was added to the control well, and the amount of BSA was the same as that of the experimental group.
Compounds were formulated into DMSO stock solutions. Stock compounds were diluted with DMSO into the indicated concentrations of working solutions prior to use in the treatment of cells. After induction of the lipid droplets with OA for the indicated time, the test compounds were added to the cells respectively. Control wells were replaced with the equal volume of DMSO. Unless otherwise stated, the compounds were diluted into 10× solutions using the culture medium and added to the culture medium for 24 hours of incubation. Cells were treated with compounds in a 37° C. incubator with 5% CO2.
(3) The original medium in the multi-well plates was removed, washed and the cells was fixed, 1 ml of the BODIPY solution prepared in (1) was added to each well, and stained for 15 minutes. The staining solution was aspirated and washed with 1×PBS.
(5) The coverslips laid in the multi-well plates were removed, and imaged with the Zeiss 880 confocal microscope after mounted, and analyzed the size and number of lipid droplets with ImageJ.
Wild type MEF cells were cultured in a DMEM culture medium containing 10% FBS. Cells were plated according to the method as described above (12 well plate was plated with aseptic treated slides). When cells grew to a confluence of 60-70%, lipid droplets were induced with OA for 30 h according to the method as described above.
At the time point of 6th hour after initiation of induction, the cells were treated (treated for 24 hours) with Compound 1A or Compound 2A (compound concentrations were 50 μM, 15.8 μM, 5 μM, 1.58 μM, 0.5 μM, 0.158 μM) according to the method as described above.

[2] = system: lipid droplets in autophagy-deficient MEF cells (Atg5−/−); test: Lipid droplets in autophagy-deficient MEF cells (Atg5-/-); assay type: cell-based, mouse; conditions: 5 μM, 24 h
Protocol: Wild type MEF cells and autophagy-deficient MEF cells (Atg5−/−) were cultured in a DMEM culture medium containing 10% FBS. Cells were plated according to the method as described above (12 well plate was plated with aseptic treated slides). When cells grew to a confluence of 60-70%, lipid droplets were induced with OA for 30 h according to the method as described above. At the time point of 6th hour after initiation of induction, OA induced lipid droplets for 30 h, and the cells were treated (treated for 24 hours) with Compound 1A or Compound 2A according to the method as described above. […] The control wells were replaced with DMSO (treated with DMSO). […] After 26 hours of OA induction for lipid droplets, the culture medium of DMSO treated cells was replaced with EBSS, and starved for 4 hours to induce autophagy, and a slight reduction on lipid droplets was observed relative to cells without starvation treatment. Therefore, lipid droplets can be degraded via cell autophagy. The compound of present disclosure could promote the degradation of lipid droplets via cell autophagy.

[3] = system: lipid droplets in SH-SY5Y cells; test: Reduction of OA-induced lipid droplets in SH-SY5Y cells; assay type: cell-based, human; conditions: for amount of lipid droplet: 1.58 μM-50 μM; for amount of lipid droplet / size of lipid droplet: 24 h; for size of lipid droplet: 5 μM-50 μM; for lipid droplet levels: concentrations as indicated in FIG. 18, 24 h
From the text: The reduction of lipid droplets in SH-SY5Y cells by Compound 1A and Compound 2A was detected by a method that was similar to Example 2, and the result was shown in FIG. 18.
The effects of unconjugated LC3 binding Compound A1, A5 and unconjugated lipid droplet probe ORBB […] respectively on lipid droplets in SH-SY5Y cells (FIG. 20A) and MEF cells (FIG. 20B) were detected by a method similar to Example 2.

[4] = system: lipid droplets in SH-SY5Y cells; test: Lipid droplets in SH-SY5Y cells in the presence of autophagy inhibitor NH4Cl; assay type: cell-based, human; conditions: with NH4Cl 5 mM, 24 h
Protocol: By a method similar to Example 4, but after 6 hours from OA induction of lipid droplets, while the test compound was added into cells, autophagy inhibitor ammonium chloride (NH4Cl, final concentration of 5 mM) was added simultaneously. After continuous treatment for 24 hours, the lipid droplets were stained. […] Therefore, the compound of present disclosure reduced lipid droplets by targeting autophagy of cells.

[5] = system: lipid droplets in 3T3-L1 fat precursor cell differentiated fat cells; test: Lipid droplets in 3T3-L1 fat precursor cell differentiated fat cells; assay type: cell-based, mouse; conditions: 3T3-L1 differentiated fat cells, 24 h; for effect of the compound on lipid droplets under the treatment of NH4Cl: 5 μM + NH4Cl 5 mM; for amount of lipid droplets / size of lipid droplets: 5 μM
[6] = system: autophagosome-lipid droplet colocalization in MEF cells; test: Colocalization of autophagosome and lipid droplets in mCherry-LC3B transfected MEF cells; assay type: cell-based, mouse; conditions: 5 μM, 3 h, compared to DMSO control
Protocol: (1) In MEF cells, mCherry-LC3B was expressed by cDNA plasmid transfection.
(2) OA was added to the culture medium 30 hours after transfection to induce lipid droplets.
(3) Compounds were added to treat cells 6 hours after induction.
(4) 3 hours after compounds addition, cells were fixed and BODIPY stained.
(5) The coverslips laid in the multi-well plates were removed, and imaged with the Zeiss 880 confocal microscope after mounted to observe the aggregation of LC3 puncta around the lipid droplets.
In MEF cells, mCherry-LC3B was expressed by cDNA plasmid transfection. At 30th hour of overexpression, OA was added into cells for lipid droplet induction. 6 hours later, the compound was added for 3 hours' treatment, and then cells were subjected to immunostaining. […] Lipid droplets (green) were stained with BODIPY stain, and nucleus were indicated with DAPI stain. […] In FIG. 24, the colocalized autophagosome-lipid droplet was marked with circles.

[7] = system: lipid droplets in LC3B knockout HEK293T cells; test: Lipid droplets in LC3B knockout HEK293T cells; assay type: cell-based, human; conditions: 5 μM
Protocol: The effect of conjugated compounds (Compound 1A, Compound 2A, Compound 3A or Compound 4A at a concentration of 5 μM) on lipid droplets in LC3B knockout HEK293T cells was tested by a method similar to Example 2.

[8] = system: lipid droplets in human normal liver cell line QSG7701; test: Endogenous lipid droplets in human normal liver cell line QSG7701; assay type: cell-based; conditions: QSG7701, no induction, 5 μM, 24 h
Protocol: 10% FBS+90% RPMI 1640 culture medium was used for cultivation, cell incubator culture condition of 37° C. and 5% CO2 was used. Cells were plated as 50 thousands/well (12 well plate was plated with aseptic treated slides). When cells grew to a confluence of 80-90%, the compound (Compound 1A or Compound 2A, at a concentration of 5 μM) was added for treatment, and LC3 binding Compound A1, A5, lipid droplet probe Sudan IV as well as DMSO acted as a control. […]. In the compounds of present disclosure, LC3 binding moiety was covalently linked with lipid droplet binding moiety, and thus could achieve the effect of reducing liver cell endogenous lipid droplet.

LC3B = LC3B (Homo sapiens, UniProt Q9GZQ8); test: MST detection of affinity activity with LC3B; assay type: binding; design: His8 (with TEV site) (N); made in house; host or cells: Escherichia coli BL21(DE3)pLysS; conditions: MST; read-out: Kd (μM), equilibrium dissociation constant between the conjugated compound and LC3B
Protocol: The recombinant GST-LC3B proteins were prepared and purified, dialyzed into 1×PBS, and then labelled with the red fluorophore with the protein labeling kit RED-NHS (Nanotemper, cat. no. L001).
The MST experiments were performed using the Monolith NT.115 instrument (NanoTemper Technologies). The reaction buffer contains 20 mM HEPES, pH 7.4, 150 mM NaCl, and the protein concentration was 500 nM. The MST data were collected under 40% infrared laser power and 20% light-emitting diode power. The data were analyzed by Nanotemper software.

[9] = system: lipid droplets in wild type MEF cells; test: Reduction of OA-induced lipid droplets in wild type MEF cells (BODIPY 493/503 staining); assay type: cell-based, mouse
wild type MEF cells = test: Integrity of nuclear membrane, cell membrane and mitochondria in MEF cells; assay type: cell-based, mouse; conditions: 5 μM, 24 h
Protocol: Cells were blocked in 4% BSA+0.1% Triton X-100 in 1×PBS for 30 min and incubated overnight at 4° C. with primary antibody goat polyclonal Lamin B1 (1:200, Santa Cruz Biotechnology, cat. no. sc-6216, RRID: AB_648156), washed with blocking buffer, and incubated with secondary antibody (1:500, Alexa Flour488 donkey anti-goat, Jackson immunoResearch Lab, cat.no. 705-547-003, RRID: AB_2340431) at room temperature for 1 hour. The samples were washed three times and stained with DAPI for 10 min at room temperature.
MitoTracker staining and CellMask staining were performed the same as LysoTracker staining, except using MitoTracker™ Green FM (500 nM, Thermo Fisher, cat. no. M7514) staining for 3 hours to detect total mitochondria; MitoTracker™ Red CMXRos. (500 nM, Thermo Fisher, cat. no. M7512) staining for 3 hours to detect healthy mitochondria; and CellMask™ (2000×, CellMask™ Plasma Membrane Stains, Thermo Fisher, cat. no. C10046) staining for 5 minutes at 37° C.
Wild type MEF cells were treated with conjugated compound (Compound 1A, Compound 2A, Compound 3A or Compound 4A at a concentration of 5 μM) according to a method similar to Example 2. […]

| Compound | lipid droplets [1] | amount of lipid droplets ([1]; 0.5 μM-50 μM) | size of lipid droplets ([1]; 5 μM-50 μM) | lipid droplets [2] | amount of lipid droplet [3] | size of lipid droplet [3] | lipid droplet levels [3] | lipid droplets [4] | effect of the compound on lipid droplets under the treatment of NH4Cl [5] | amount of lipid droplets [5] | size of lipid droplets [5] | ratio of colocalization of red and green aggregation point (autophagosome-lipid droplet) [6] | reduction of lipid droplets induced by conjugated compounds after knockout of LC3B gene [7] | endogenous lipid droplets (amount) [8] | Kd (LC3B) [µM] | lipid droplets ([9]; DMSO treated cells, 5 mM NH4Cl, 24 h, relative to cells not treated with NH4Cl) | amount or size of lipid droplets ([9]; wild type MEF, autophagy blocker NH4Cl) | integrity of nuclear membrane, cell membrane, mitochondrion membrane (wild type MEF cells) | amount of lipid droplets ([1]; 1.58 μM-50 μM) | size of lipid droplets ([1]; 1.58 μM-50 μM) |
| --- | --- | --- | --- | --- | --- | --- | --- | --- | --- | --- | --- | --- | --- | --- | --- | --- | --- | --- | --- | --- |
| 3-(3,5-dibromo-4-hydroxylbenzylidene)-5-iodo-1-(10-((1-((E)-(4-((E)-phenyldiazenyl)phenyl)diazenyl)naphthalen-2-yl)oxy)decyl)indol-2-one [Compound 1A] | significantly reduced | significantly reduced | significantly reduced | does not change; also recorded: ineffective | significantly reduce | significantly reduce | significantly reduces | does not change; also recorded: did not reduce | blocked | could reduce | could change | significantly increased | largely blocked | significantly reduce; also recorded: could reduce | 3.56 | – | – | – | – | – |
| Cl.N [NH4Cl, ammonium chloride] | – | – | – | – | – | – | – | – | – | – | – | – | – | – | – | slight increase | slightly increased | – | – | – |
| Cc1ccccc1/N=N/c1ccc(/N=N/c2c(OCCCCCCCCCCOc3cc(O)c4c(-c5ccccc5)cc(=O)oc4c3)ccc3ccccc23)c(C)c1 [Compound 2] | – | – | – | – | – | – | – | – | – | – | – | – | – | – | – | – | – | Did not Affect | – | – |
| Cc1ccccc1/N=N/c1ccc(/N=N/c2c(OCCCCCCCCCCOc3cc(O)cc4oc(=O)cc(-c5ccccc5)c34)ccc3ccccc23)c(C)c1 [Compound 2A, 7-hydroxy-5-((10-((1-((E)-(2-methyl-4-((E)-o-methylphenyldiazenyl)phenyl)diazenyl)naphthalen-2-yl)oxy)decyl)oxy)-4-phenyl-2H-chromen-2-one] | significantly reduced | – | – | does not change; also recorded: ineffective | significantly reduce | significantly reduce | significantly reduces | does not change; also recorded: did not reduce | blocked | could reduce | could change | significantly increased | largely blocked | significantly reduce; also recorded: could reduce | 5.37 | – | – | – | significantly reduced | significantly reduced |

Reference: patent US12582720B2, “Compound for preventing or treating lipid metabolism-related diseases” (Fudan University, priority 2020, dated 2026)
